“And” between values parts separate entries of the source, which are not always exact repeats. Equal values may be shown once. Read-outs that look alike come from different tables or passages of the source.
Assay: Plasma pharmacokinetics after IV and PO administration
Format: in vivo, male Sprague–Dawley rats
Experimental: LZQ‐02‐023‐1 was administered to male Sprague–Dawley (SD) rats (n = 3 per group) via intravenous injection at a dose of 1 mg/kg or oral gavage at a dose of 10 mg/kg. Blood samples were collected at predetermined time points, and plasma concentrations of LZQ‐02‐023‐1 were determined using a validated LC‐MS/MS method. Briefly, working solutions of the analyte were prepared by diluting stock solutions with 50% acetonitrile in water to achieve serial concentrations (10, 20, 50, 100, 200, 500, 1000, 5000, and 10 000 ng/mL). Calibration standards were prepared by spiking 5 µL of working solution into 50 µL of blank SD rat plasma, resulting in final concentrations of 1, 2, 5, 10, 20, 50, 100, 500, and 1000 ng/mL in a total volume of 55 µL. Quality control (QC) samples were independently prepared at four concentrations (2, 5, 50, and 800 ng/mL) using blank SD rat plasma, following the same procedure as for the calibration standards. On the day of analysis, 55 µL of each calibration standard, QC sample, or unknown sample (prepared by mixing 50 µL of SD rat plasma with 5 µL of blank solution) was added to 200 µL of acetonitrile:methanol (1:1, v/v) containing an internal standard (IS) mixture for protein precipitation. The samples were vortexed for 30 s, centrifuged at 4000 rpm for 15 min at 4 °C, and the resulting supernatant was diluted threefold with water. A 10 µL aliquot of the diluted supernatant was injected into an AB Sciex Triple Quad 5500 LC‐MS/MS system for quantitative analysis. Pharmacokinetic parameters, including the maximum plasma concentration (Cmax), time to reach Cmax (Tmax), elimination half‐life (t1⁄2), area under the plasma concentration‐time curve (AUC0–t and AUC0–∞), clearance (CL), and volume of distribution (Vd), were calculated using noncompartmental analysis (NCA) in Phoenix WinNonlin 8.3 (Certara; Table S3, Supporting Information).

[1] = IV 1 mg/kg, individual rats R01-R03, 1 mg/kg
[2] = PO 10 mg/kg, individual rats R04-R06, 10 mg/kg

## Cc1ccc(Nc2ncc3c(n2)N(C)C(=O)N(c2cccc(N)c2)C3)cn1 [LZQ-02-023-01, Three‐(3‐aminophenyl)‐1‐methyl‐7‐((6‐methylpyridin‐3‐yl)amino)‐3,4‐dihydropyrimido [4,5‐d] pyrimidin‐2 (1H)‐one]
IV 1 mg/kg
  AUC_%Extrap_obs, mean: 1.09%
  C0, mean: 2250 ng/mL
  Vss_obs, mean: 0.660 L/kg
IV 1 mg/kg, 5 min, individual rats R01-R03, 1 mg/kg
  Plasma concentration: 532 ng/mL and 563 ng/mL
IV 1 mg/kg, 0.25 h, individual rats R01-R03, 1 mg/kg
  Plasma concentration: 35.5 ng/mL and 26.8 ng/mL
IV 1 mg/kg, 0.5 h, individual rats R01-R03, 1 mg/kg
  Plasma concentration: 12.4 ng/mL and 16.0 ng/mL
IV 1 mg/kg, 1 h, individual rats R01-R03, 1 mg/kg
  Plasma concentration: 4.29 ng/mL and 4.07 ng/mL
IV 1 mg/kg, 2 h, individual rats R01-R03, 1 mg/kg
  Plasma concentration: 2.11 ng/mL and 1.86 ng/mL
IV 1 mg/kg, 4 h, individual rats R01-R03
  Plasma concentration: BLOQ (BLOQ = Below quantifiable limit of 1 ng/mL.)
IV 1 mg/kg, 8 h, individual rats R01-R03
  Plasma concentration: BLOQ (BLOQ = Below quantifiable limit of 1 ng/mL.)
IV 1 mg/kg, 24 h, individual rats R01-R03
  Plasma concentration: BLOQ (BLOQ = Below quantifiable limit of 1 ng/mL.)
[1]
  AUCInf: 170 ng·h/mL and 195 ng·h/mL
  AUC_%Extrap_obs: 1.46% and 1.11% and 0.712%
  AUClast: 169 ng·h/mL and 193 ng·h/mL
  C0: 2058 ng/mL and 2578 ng/mL
  Cl_obs: 97.8 mL/min/kg and 85.6 mL/min/kg
  MRTInf_obs: 7.2 min and 5.85 min
  T1/2: 37.4 min and 31 min
  Vss_obs: 0.772 L/kg and 0.707 L/kg and 0.501 L/kg
PO 10 mg/kg
  AUC_%Extrap_obs, mean: 12.8%
PO 10 mg/kg vs IV 1 mg/kg, individual rats R04-R06
  F (bioavailability): 2.37% and 1.27%
PO 10 mg/kg, 0.25 h, individual rats R04-R06, 10 mg/kg
  Plasma concentration: 39.0 ng/mL and 24.0 ng/mL and 8.83 ng/mL
PO 10 mg/kg, 0.5 h, individual rats R04-R06, 10 mg/kg
  Plasma concentration: 20.0 ng/mL and 20.1 ng/mL
PO 10 mg/kg, 1 h, individual rats R04-R06, 10 mg/kg
  Plasma concentration: 7.33 ng/mL and 6.63 ng/mL and 3.54 ng/mL
PO 10 mg/kg, 2 h, individual rats R04-R06, 10 mg/kg
  Plasma concentration: 3.36 ng/mL and 12.9 ng/mL and 3.14 ng/mL
PO 10 mg/kg, 4 h, individual rats R04-R06, 10 mg/kg
  Plasma concentration: 2.02 ng/mL and 1.36 ng/mL
PO 10 mg/kg, 8 h, individual rats R04-R06
  Plasma concentration: BLOQ (BLOQ = Below quantifiable limit of 1 ng/mL.)
PO 10 mg/kg, 24 h, individual rats R04-R06
  Plasma concentration: BLOQ (BLOQ = Below quantifiable limit of 1 ng/mL.)
[2]
  AUCInf: 42.0 ng·h/mL and 22.6 ng·h/mL
  AUC_%Extrap_obs: 15.0% and 5.19% and 18.1%
  AUClast: 27.6 ng·h/mL and 39.8 ng·h/mL and 18.5 ng·h/mL
  Cmax: 24.0 ng/mL and 20.1 ng/mL
  MRTInf_obs: 97.2 min and 134 min
  T1/2: 101 min and 44.9 min and 125 min
  Tmax: 30 min
male, Sprague-Dawley, rat, plasma, iv, 1 mg/kg, IV 1 mg/kg, 5 min, individual rats R01-R03, read-out: Plasma concentration
  concentration at 5 min: 504 ng/mL
male, Sprague-Dawley, rat, plasma, iv, 1 mg/kg, IV 1 mg/kg, 5 min, read-out: Plasma concentration, mean
  concentration at 5 min: 533 ng/mL
male, Sprague-Dawley, rat, plasma, iv, 1 mg/kg, IV 1 mg/kg, 0.25 h, individual rats R01-R03, read-out: Plasma concentration
  concentration at 0.25 h: 28.6 ng/mL
male, Sprague-Dawley, rat, plasma, iv, 1 mg/kg, IV 1 mg/kg, 0.25 h, read-out: Plasma concentration, mean
  concentration at 0.25 h: 30.3 ng/mL
male, Sprague-Dawley, rat, plasma, iv, 1 mg/kg, IV 1 mg/kg, 0.5 h, individual rats R01-R03, read-out: Plasma concentration
  concentration at 0.5 h: 10.9 ng/mL
male, Sprague-Dawley, rat, plasma, iv, 1 mg/kg, IV 1 mg/kg, 0.5 h, read-out: Plasma concentration, mean
  concentration at 0.5 h: 13.1 ng/mL
male, Sprague-Dawley, rat, plasma, iv, 1 mg/kg, IV 1 mg/kg, 1 h, individual rats R01-R03, read-out: Plasma concentration
  concentration at 1 h: 4.26 ng/mL
male, Sprague-Dawley, rat, plasma, iv, 1 mg/kg, IV 1 mg/kg, 1 h, read-out: Plasma concentration, mean
  concentration at 1 h: 4.21 ng/mL
male, Sprague-Dawley, rat, plasma, iv, 1 mg/kg, IV 1 mg/kg, 2 h, individual rats R01-R03, read-out: Plasma concentration
  concentration at 2 h: 2.35 ng/mL
male, Sprague-Dawley, rat, plasma, iv, 1 mg/kg, IV 1 mg/kg, 2 h, read-out: Plasma concentration, mean
  concentration at 2 h: 2.11 ng/mL
male, Sprague-Dawley, rat, plasma, iv, 1 mg/kg, IV 1 mg/kg, individual rats R01-R03, read-out: AUCInf
  AUC(0-inf): 168 ng·h/mL
male, Sprague-Dawley, rat, plasma, iv, 1 mg/kg, IV 1 mg/kg, individual rats R01-R03, read-out: AUClast
  AUC(0-t): 165 ng·h/mL
male, Sprague-Dawley, rat, plasma, iv, 1 mg/kg, IV 1 mg/kg, individual rats R01-R03, read-out: C0
  C0: 2110 ng/mL
male, Sprague-Dawley, rat, plasma, iv, 1 mg/kg, IV 1 mg/kg, individual rats R01-R03, read-out: Cl_obs
  clearance: 99.3 mL/min/kg
male, Sprague-Dawley, rat, plasma, iv, 1 mg/kg, IV 1 mg/kg, individual rats R01-R03, read-out: MRTInf_obs
  MRT inf: 7.8 min
male, Sprague-Dawley, rat, plasma, iv, 1 mg/kg, IV 1 mg/kg, individual rats R01-R03, read-out: T1/2 (converted)
  half-life: 43.3 min
male, Sprague-Dawley, rat, plasma, iv, 1 mg/kg, IV 1 mg/kg, read-out: AUCInf, mean
  AUC(0-inf): 178 ng·h/mL
male, Sprague-Dawley, rat, plasma, iv, 1 mg/kg, IV 1 mg/kg, read-out: AUClast, mean
  AUC(0-t): 176 ng·h/mL
male, Sprague-Dawley, rat, plasma, iv, 1 mg/kg, IV 1 mg/kg, read-out: Cl_obs, mean
  clearance: 94.2 mL/min/kg
male, Sprague-Dawley, rat, plasma, iv, 1 mg/kg, IV 1 mg/kg, read-out: MRTInf_obs, mean
  MRT inf: 6.96 min
male, Sprague-Dawley, rat, plasma, iv, 1 mg/kg, IV 1 mg/kg, read-out: T1/2, mean (converted)
  half-life: 37.2 min
male, Sprague-Dawley, rat, plasma, iv, 1 mg/kg, IV administration, male SD rats, read-out: Plasma half-life (converted)
  half-life: ~37.2 min
male, Sprague-Dawley, rat, plasma, po, 10 mg/kg, PO 10 mg/kg vs IV 1 mg/kg, individual rats R04-R06, read-out: F (bioavailability)
  bioavailability: 1.82%
male, Sprague-Dawley, rat, plasma, po, 10 mg/kg, PO 10 mg/kg vs IV 1 mg/kg, read-out: F (bioavailability), mean
  bioavailability: 1.82%
male, Sprague-Dawley, rat, plasma, po, 10 mg/kg, PO 10 mg/kg, 0.25 h, read-out: Plasma concentration, mean
  concentration at 0.25 h: 23.9 ng/mL
male, Sprague-Dawley, rat, plasma, po, 10 mg/kg, PO 10 mg/kg, 0.5 h, individual rats R04-R06, read-out: Plasma concentration
  concentration at 0.5 h: 14.1 ng/mL
male, Sprague-Dawley, rat, plasma, po, 10 mg/kg, PO 10 mg/kg, 0.5 h, read-out: Plasma concentration, mean
  concentration at 0.5 h: 18.1 ng/mL
male, Sprague-Dawley, rat, plasma, po, 10 mg/kg, PO 10 mg/kg, 1 h, read-out: Plasma concentration, mean
  concentration at 1 h: 5.83 ng/mL
male, Sprague-Dawley, rat, plasma, po, 10 mg/kg, PO 10 mg/kg, 2 h, read-out: Plasma concentration, mean
  concentration at 2 h: 6.5 ng/mL
male, Sprague-Dawley, rat, plasma, po, 10 mg/kg, PO 10 mg/kg, 4 h, individual rats R04-R06, read-out: Plasma concentration
  concentration at 4 h: 1.99 ng/mL
male, Sprague-Dawley, rat, plasma, po, 10 mg/kg, PO 10 mg/kg, 4 h, read-out: Plasma concentration, mean
  concentration at 4 h: 1.79 ng/mL
male, Sprague-Dawley, rat, plasma, po, 10 mg/kg, PO 10 mg/kg, individual rats R04-R06, read-out: AUCInf
  AUC(0-inf): 32.4 ng·h/mL
male, Sprague-Dawley, rat, plasma, po, 10 mg/kg, PO 10 mg/kg, individual rats R04-R06, read-out: Cmax
  Cmax: 39 ng/mL
male, Sprague-Dawley, rat, plasma, po, 10 mg/kg, PO 10 mg/kg, individual rats R04-R06, read-out: MRTInf_obs
  MRT inf: 111 min
male, Sprague-Dawley, rat, plasma, po, 10 mg/kg, PO 10 mg/kg, individual rats R04-R06, read-out: Tmax
  Tmax: 15 min
male, Sprague-Dawley, rat, plasma, po, 10 mg/kg, PO 10 mg/kg, read-out: AUCInf, mean
  AUC(0-inf): 32.3 ng·h/mL
male, Sprague-Dawley, rat, plasma, po, 10 mg/kg, PO 10 mg/kg, read-out: AUClast, mean
  AUC(0-t): 28.6 ng·h/mL
male, Sprague-Dawley, rat, plasma, po, 10 mg/kg, PO 10 mg/kg, read-out: Cmax, mean
  Cmax: 27.7 ng/mL
male, Sprague-Dawley, rat, plasma, po, 10 mg/kg, PO 10 mg/kg, read-out: MRTInf_obs, mean
  MRT inf: 114 min
male, Sprague-Dawley, rat, plasma, po, 10 mg/kg, PO 10 mg/kg, read-out: T1/2, mean (converted)
  half-life: 90.6 min
male, Sprague-Dawley, rat, plasma, po, 10 mg/kg, PO 10 mg/kg, read-out: Tmax, mean
  Tmax: 20 min
male, Sprague-Dawley, rat, plasma, po, 10 mg/kg, PO administration, male SD rats, read-out: Plasma half-life (converted)
  half-life: ~90.6 min

— paper PMC12752606, “METTL10‐Mediated PIAS3 Methylation Links Purine Metabolism to Gastric Cancer Progression” (Advanced Science, 2025)
